Experimental data taken from article PMC3778450, “Agonists and antagonists induce different palonosetron dissociation rates in 5-HT3A and 5-HT3AB receptors^” (Neuropharmacology, 2013).
Read-outs that look alike come from different tables or passages of the source.

Assays:
[1] = molecular target: 5-HT3 receptors, human hippocampus; parameters: method as in Wong et al., 1995; details: ref Wong et al., 1995; cited from earlier work
[2] = system: 5-HT3 receptors, transfected HEK293 cells; parameters: method as in Rojas et al., 2008; details: ref Rojas et al., 2008; cited from earlier work
[3] = system: 5-HT3 receptors; parameters: method as in Wong et al., 1995; details: ref Wong et al., 1995, cited from earlier work
[4] = system: 5-HT3 receptors, NG108-15 cells; parameters: method as in Wong et al., 1995; details: ref Wong et al., 1995; cited from earlier work
[5] = molecular target: T1, 5-HT3AB receptors (Homo sapiens, UniProt P46098); experiment: Flexstation membrane potential dye assay, inhibition of 5-HT-induced responses; format: cell-based; details: for relative Fmax: relative to 0 palonosetron (100%), typical example; for IC50: palonosetron preincubated 45 min before 5-HT, HEK293 cells
T1 construct: expressed in transfected cells; host or cells: HEK293
T1 sequence (P46098 24-478): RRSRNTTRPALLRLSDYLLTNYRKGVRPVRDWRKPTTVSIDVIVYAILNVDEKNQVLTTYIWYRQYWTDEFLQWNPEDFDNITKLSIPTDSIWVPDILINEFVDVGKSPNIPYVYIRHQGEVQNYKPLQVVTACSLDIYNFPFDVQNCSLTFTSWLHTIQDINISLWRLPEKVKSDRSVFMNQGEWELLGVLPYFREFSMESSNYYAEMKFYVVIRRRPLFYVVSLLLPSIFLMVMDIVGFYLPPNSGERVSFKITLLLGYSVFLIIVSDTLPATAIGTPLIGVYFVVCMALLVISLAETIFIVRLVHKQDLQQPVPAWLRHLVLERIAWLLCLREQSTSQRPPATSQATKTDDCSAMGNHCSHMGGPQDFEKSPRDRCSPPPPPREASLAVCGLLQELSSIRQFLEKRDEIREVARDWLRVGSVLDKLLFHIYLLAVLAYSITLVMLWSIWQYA
T1 sequence (O95264 22-441 partner): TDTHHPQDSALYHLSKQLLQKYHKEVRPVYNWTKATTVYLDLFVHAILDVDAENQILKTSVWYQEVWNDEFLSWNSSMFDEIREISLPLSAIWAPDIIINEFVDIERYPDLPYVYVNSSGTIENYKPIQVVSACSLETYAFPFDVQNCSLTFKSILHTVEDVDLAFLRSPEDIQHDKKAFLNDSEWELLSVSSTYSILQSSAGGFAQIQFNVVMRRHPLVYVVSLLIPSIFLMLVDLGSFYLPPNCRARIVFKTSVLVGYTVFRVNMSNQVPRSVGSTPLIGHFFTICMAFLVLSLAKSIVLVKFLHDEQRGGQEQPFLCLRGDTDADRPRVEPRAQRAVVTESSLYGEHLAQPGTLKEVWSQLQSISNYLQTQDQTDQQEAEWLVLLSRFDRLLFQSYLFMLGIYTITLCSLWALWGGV
Procedure: (§1) Human embryonic kidney (HEK) 293 cells were maintained on 90 mm tissue culture plates at 37 °C and 7% CO2 in a humidified atmosphere. They were cultured in DMEM:F12 (Dulbecco's Modified Eagle Medium/Nutrient Mix F12 (1:1)) with GlutaMAX™ I media containing 10% foetal calf serum and passaged when confluent. For radioligand binding studies cells in 90 mm dishes were transfected using PEI and incubated for 3–4 days before use. For functional studies cells were plated on 96 well plates, transfected using the Neon transfection system (Invitrogen) and incubated 1–2 days before assay. Mutagenesis reactions were performed using QuikChange (Agilent Technologies Inc., CA, USA) using human 5-HT3A or 5-HT3B receptor subunit cDNA (accession numbers: P46098 or O95264) in pcDNA3.1 (Invitrogen, Paisley, UK). Subunit numberings have been altered to the aligning residues in the mouse 5-HT3A receptor.
(§2) Fluorescence was measured in a FLEXstation™ (Molecular Devices Ltd., Wokingham, UK) every 2 s for 200 s using the acquisition software SOFTmax® PRO v4.3.
(§3) Data were analysed by iterative curve fitting using Prism software (GraphPad, San Diego, California, USA). Determination of Ki values was performed using the Cheng–Prusoff equation. Values are presented as mean ± SEM, n = 3–6.

[6] = molecular target: T2, 5-HT3A receptors (Homo sapiens, UniProt P46098); experiment: as above; format: cell-based; details: for relative Fmax: relative to 0 palonosetron (100%), typical example; for IC50: HEK293 cells
T2 construct: expressed in transfected cells; host or cells: HEK293
T2 sequence (P46098 24-478): T1 sequence (P46098 24-478)
Procedure: as §1, §2, §3

[7] = molecular target: T3, 5-HT3 receptors expressed in oocytes (Homo sapiens, UniProt P46098); experiment: Recovery from palonosetron inhibition after washout in oocytes; format: cell-based; details: after a 10 min wash; data not shown
T3 sequence (P46098 24-478): T1 sequence (P46098 24-478)

[8] = molecular target: T1, 5-HT3AB receptors; experiment: Radioligand association and dissociation kinetics, HEK293 membranes; format: binding; parameters: dissociation k−1 (mean ± S.E.M): unit not given here
Procedure: as §1
(§4) Briefly, transfected HEK293 cells were washed twice with phosphate buffered saline (PBS) at room temperature and scraped into 1 ml of ice-cold HEPES buffer (10 mM, pH 7.4) containing the following proteinase inhibitors (PI): 1 mM EDTA, 50 μg ml^−1 soybean trypsin inhibitor, 50 μg/ml bacitracin and 0.1 mM phenylmethylsulphonyl fluoride. […] Non-specific binding was determined using 10 μM quipazine. […] All samples were terminated by vacuum filtration using a Brandel cell harvester onto GF/B filters pre-soaked in 0.3% polyethyleneimine. Radioactivity was determined by scintillation counting using a Beckman LS6000SC (Fullerton, California, USA).
as §3

[9] = molecular target: T1, 5-HT3AB receptors; experiment: [3H]granisetron competition binding, HEK293 membranes; details: displacement of [3H]granisetron
Procedure: as §1, §4, §3

[10] = molecular target: T2, 5-HT3A receptors; experiment: as above; details: displacement of [3H]granisetron
Procedure: as §1, §4, §3

[11] = molecular target: T2, 5-HT3A receptors; experiment: Radioligand association and dissociation kinetics, HEK293 membranes; format: binding; parameters: dissociation k−1 (mean ± S.E.M): unit: h−1
Procedure: as §1, §4, §3

[12] = system: 5-HT3 receptor-expressing HEK293 cells; details: cited from earlier work; for [3H]palonosetron remaining: ref Rojas et al., 2010
[13] = molecular target: T1, 5-HT3AB receptors; experiment: [3H]palonosetron saturation binding, HEK293 membranes; details: 24 h, 4 °C
Procedure: (§5) Human embryonic kidney (HEK) 293 cells were maintained on 90 mm tissue culture plates at 37 °C and 7% CO2 in a humidified atmosphere. They were cultured in DMEM:F12 (Dulbecco's Modified Eagle Medium/Nutrient Mix F12 (1:1)) with GlutaMAX™ I media containing 10% foetal calf serum and passaged when confluent. For radioligand binding studies cells in 90 mm dishes were transfected using PEI and incubated for 3–4 days before use. For functional studies cells were plated on 96 well plates, transfected using the Neon transfection system (Invitrogen) and incubated 1–2 days before assay. […]
(§6) Briefly, transfected HEK293 cells were washed twice with phosphate buffered saline (PBS) at room temperature and scraped into 1 ml of ice-cold HEPES buffer (10 mM, pH 7.4) containing the following proteinase inhibitors (PI): 1 mM EDTA, 50 μg ml^−1 soybean trypsin inhibitor, 50 μg/ml bacitracin and 0.1 mM phenylmethylsulphonyl fluoride. […] Non-specific binding was determined using 10 μM quipazine. […] Radioactivity was determined by scintillation counting using a Beckman LS6000SC (Fullerton, California, USA).
(§7) Data were analysed by iterative curve fitting using Prism software (GraphPad, San Diego, California, USA). […]

[14] = molecular target: T2, 5-HT3A receptors; experiment: as above; details: 24 h, 4 °C
Procedure: as §5, §6, §7

[15] = agonist-induced dissociation (5-HT or quipazine)
[16] = displacing ligand MDL72222 (1 μM)
[17] = displacing ligand unlabelled palonosetron (100 nM)
[18] = displacing ligand 5-HT (100 μM)
[19] = displacing ligand quipazine (10 μM)

Question: Which results are given for `O=C1c2cccc3c2[C@H](CCC3)CN1[C@@H]1CN2CCC1CC2` [Palonosetron, palonosetron]?
Answer: Kd [1]: 0.15 nM; Kd [2]: 0.2 nM; dissociation t½ ([3]; previous studies): 8 to 10 min; Kd [4]: 0.05 nM; relative Fmax ([5]; 0.1 nM palonosetron): 62%; relative Fmax ([5]; 0.3 nM palonosetron): 28%; IC50 ([5]; read-out: IC50): 0.18 nM; IC50 ([5]; read-out: pIC50 (converted)): 0.186 nM; relative Fmax ([6]; 0.1 nM palonosetron): 70%; relative Fmax ([6]; 0.3 nM palonosetron): 40%; IC50 ([6]; palonosetron co-applied with 5-HT, read-out: IC50): 83 nM; IC50 ([6]; palonosetron preincubated 45 min before 5-HT, read-out: IC50): 0.24 nM; IC50 ([6]; palonosetron preincubated 45 min before 5-HT, read-out: pIC50 (converted)): 0.245 nM; original response recovered after washout [7]: < 10%; dissociation t1/2 [8, 15]: > 10 h; dissociation t1/2 [8, 16]: 1.7 h; dissociation t1/2 [8, 17]: 1.0 h; IC50 ([9]; 4 °C): 0.71 nM; Ki ([9]; Cheng–Prusoff): 0.35 nM; IC50 ([10]; 4 °C): 0.6 nM; Ki ([10]; Cheng–Prusoff): 0.3 nM; dissociation t1/2 [11, 15]: > 10 h; dissociation t1/2 [11, 16]: 2.3 h; dissociation t1/2 [11, 17]: 1.5 h

Question: Which results are given for `O=C1c2cccc3c2[C@H](CCC3)CN1[C@@H]1CN2CCC1CC2` [[^3H]palonosetron]?
Answer: time to complete association ([3]; previously reported): under 10 min; [3H]palonosetron remaining associated ([12]; HEK293 cells after a 2.5 h wash, ref Rojas et al. (2008)): 53 ± 11%; [3H]palonosetron remaining ([12]; cell-free membrane preparation after a 60 min wash): 2%; [3H]palonosetron remaining ([12]; cells after a 60 min wash): 65%; association k [8]: 0.35 ± 0.06; association t1/2 [8]: 2.0 min; dissociation k−1 (mean ± S.E.M) [8, 18]: 0.057 ± 0.008; dissociation t1/2 [8, 18]: 12.1 h; dissociation k−1 (mean ± S.E.M) [8, 16]: 0.41 ± 0.04; dissociation k−1 (mean ± S.E.M) [8, 19]: 0.068 ± 0.003; dissociation t1/2 [8, 19]: 10.1 h; dissociation k−1 (mean ± S.E.M) [8, 17]: 0.68 ± 0.08; association k [11]: 0.16 ± 0.03; association t1/2 [11]: 4.1 min; [3H]palonosetron remaining ([11]; after 2 h dissociation in the presence of MDL72222): 67 ± 7%; dissociation k−1 (mean ± S.E.M) [11, 18]: 0.032 ± 0.005; dissociation t1/2 [11, 18]: 21.9 h; dissociation k−1 (mean ± S.E.M) [11, 16]: 0.29 ± 0.03; dissociation k−1 (mean ± S.E.M) [11, 19]: 0.056 ± 0.003; dissociation t1/2 [11, 19]: 12.5 h; dissociation k−1 (mean ± S.E.M) [11, 17]: 0.44 ± 0.05; dissociation t1/2 [11, 17]: 1.5 h; Kd [13]: 0.15 nM; Kd [14]: 0.34 nM
